Measured values taken from patent publication US6534523B1, “Hepatitis C inhibitor tri-peptides” (Boehringer Ingelheim (Canada) Ltd., priority 1998, dated 2003).

What was measured:
[1] = biological target: bovine pancreatic α-chymotrypsin (Bos taurus, UniProt P00766); test: Specificity assay (Example 40), bovine pancreatic α-chymotrypsin; format: biochemical; conditions: read-out: α-Chym. activity in the specificity assay of Example 40
Protocol: (§1) The specificity of the compounds was determined against a variety of serine proteases: human leukocyte elastase, porcine pancreatic elastase and bovine pancreatic α-chymotrypsin and one cysteine protease: human liver cathepsin B. In all cases a 96-well plate format protocol using a calorimetric p-nitroaniline (pNA) substrate specific for each enzyme was used. Each assay included a 1 h enzyme-inhibitor pre-incubation at 30° C. followed by addition of substrate and hydrolysis to ≈30% conversion as measured on a UV Thermomax® microplate reader. Substrate concentrations were kept as low as possible compared to KM to reduce substrate competition. Compound concentrations varied from 300 to 0.06 μM depending on their potency.
(§2) The final conditions for each assay were as follows:
(§3) 50 mM Tris-HCl pH 8, 0.5 M Na2SO4, 50 mM NaCl, 0.1 mM EDTA, 3% DMSO, 0.01% Tween-20 with;
[100 μM Succ-AAPF-pNA and 250 pM α-chymotrypsin], [133 μM Succ-AAA-pNA and 8 nM porcine elastase], [133 μM Succ-AAV-pNA and 8 nM leukocyte elastase]; or
The sequential 2-fold dilutions of the inhibitor solution were performed on a separate plate by the liquid handler using 50 mM Tris-HCl pH 8, 50 mM NaCl, 0.1 mM EDTA, 0.02% Tween-20, 15% DMSO. All other specificity assays were performed in a similar fashion.
The percentage of inhibition was calculated using the formula:
[1-((UVinh−UVblank)/(UVctl−UVblank))]×100 […]

HCV NS3 protease = HCV NS3 protease (UniProt P26663); format: biochemical, HCV genotype 1b; set-up: rows headed: IC50 (μM); IC50 (μM); conditions: Table 6
[2] = biological target: porcine pancreatic elastase (PPE) (Sus scrofa, UniProt P00772); test: Specificity assay (Example 40), porcine pancreatic elastase; format: biochemical
Protocol: as §1, §2, §3
[100 μM Succ-AAPF-pNA and 250 pM α-chymotrypsin], [133 μM Succ-AAA-pNA and 8 nM porcine elastase], [133 μM Succ-AAV-pNA and 8 nM leukocyte elastase]; or […]
After 60 min pre-incubation at 30° C., 20 μL of substrate solution (50 mM Tris-HCl, pH 8, 0.5 M Na2SO4, 50 mM NaCl, 0.1 mM EDTA, 665 μM Succ-AAA-pNA) were added to each well and the reaction was further incubated at 30° C. for 60 min after which time the absorbance was read on the UV Thermomax® plate reader. […]
The percentage of inhibition was calculated using the formula: […]

Sequence of porcine pancreatic elastase (PPE) (P00772 27-266): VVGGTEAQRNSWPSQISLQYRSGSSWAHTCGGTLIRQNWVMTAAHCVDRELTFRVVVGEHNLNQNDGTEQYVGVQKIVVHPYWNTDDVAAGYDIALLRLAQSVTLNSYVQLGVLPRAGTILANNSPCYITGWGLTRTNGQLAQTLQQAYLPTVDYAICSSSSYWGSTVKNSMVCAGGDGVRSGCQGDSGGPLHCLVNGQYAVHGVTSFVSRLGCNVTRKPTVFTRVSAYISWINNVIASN
Sequence of HCV NS3 protease (P26663 1027-1206, other chains not shown): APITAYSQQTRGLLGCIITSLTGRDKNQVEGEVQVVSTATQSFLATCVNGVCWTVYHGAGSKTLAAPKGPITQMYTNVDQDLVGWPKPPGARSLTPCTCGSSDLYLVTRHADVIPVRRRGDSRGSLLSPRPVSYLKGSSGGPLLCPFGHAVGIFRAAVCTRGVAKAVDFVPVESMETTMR

## C=C[C@@H]1C[C@]1(NC(=O)[C@@H]1C[C@@H](Oc2cc(-c3ccccc3)nc3cc(OC)ccc23)CN1C(=O)[C@@H](NC(=O)OC(C)(C)C)C(C)C)C(=O)O [compound 601]
[1]
  IC50: > 75 µM
HCV NS3 protease
  IC50: 0.05 µM
[2]
  IC50: > 75 µM
